In patent publication US20250288558A1, “THERAPEUTIC FOR SPINAL CORD INJURY TO INDUCE HYPOTHERMIA” (The Trustees of Indiana University, priority 2024, published 2025):
Where a name gives a salt, the structure may show the parent alone.

What was measured:
NeuN-positive neurons = conditions: after SCI, FIG. 8A
Method: We further counted the number of NeuN-positive neurons in each section. […] Therefore, SMI31, an axon maker immunostaining was performed to evaluate the axons in spared white matter.
Immunofluorescent Staining: Immunofluorescent staining was carried out according to our previous reports. In brief, sections on the slides were rinsed in PBS 3 times (5 minutes each) and incubated in blocking buffer (0.1% Triton X-100, 1% bovine serum albumin, and 5% normal serum in PBS) for 1 hour at room temperature. Then, primary antibodies were added to blocking buffer and incubated with sections overnight at 4° C. After 3 washes with PBS (5 minutes each), sections were incubated with the secondary antibody for 1 hour at room temperature and then treated with 4′,6-Diamidino-2-phenylindole (DAPI) for 2 minutes. Finally, sections were washed 3 times with PBS (5 minutes each), dried, and mounted using Fluoromount G (Southern Biotech, Birmingham, AL, USA). Primary antibodies and their final concentrations were as follows: NeuN antibody (1:500, chicken, Abcam, ab134014), SMI31 antibody (1:1000, mouse, Millipore, NE1022), and GFAP antibody (1:1000, mouse, Sigma, G3893).

[1] = tested on: c-fos positive neurons in raphe nuclei; conditions: during urodynamic recording
From the text: During the urodynamic recording, brain stem neurons controlling the urination within the spared supraspinal circuitry were activated and expressed c-fos.

[2] = tested on: mice with contusive T9 moderate SCI (IH); conditions: Dex 100 μg/kg one hour post-trauma, IH model, ambient 24.5° C.
Method: Contusive spinal cord injury: Adult female C57BL/6 mice (8 weeks old, 18-22 g) were purchased from The Jackson Laboratory (Bar Harbor, ME). Depending on different injury model, mice were either randomly divided into three groups: sham, SCI+heating pad, and SCI+Dex for LISA injury model, or were randomly divided into four groups: sham, SCI+heating pad, SCI+Dex, and SCI+Conventional hypothermia for Infinite Horizons (IH) model. […] All animal care, handling, and surgery were performed in accordance with the Guide for the Care and Use of Laboratory Animals (National Research Council) and the Guidelines of the Institutional Animal Care and Use Committee of Indiana University School of Medicine. Spinal cord contusion was made at the thoracic (T9) vertebral level. After avertin anesthesia, animals will be placed on a thermometer-controlled heating pad for the duration of recovery (except Dex and conventional hypothermia treated group). For LISA injury model, C57/6J mice were anesthetized. […] The T9 contusion injury was performed using a LISA impactor, where the injury level was determined using a laser sensor. After injury confirmation, the surgical area is sutured, the animal is hydrated and monitored for post-operative care, including analgesia and bladder expression. […]

mouse with a SCI = conditions: metabolic cage, n=5
[3] = tested on: mice with moderate contusive spinal cord injury (SCI) at thoracic 9 (T9)
Method: The effects of different doses of Dex on hypothermia induction in none-injury young adult c57 BL/6 mice was tested. […] Further, we examined the change of Dex induced hypothermia when the routine Avertin (2.5%), a wildly used anesthetic for small animal surgery was applied.
(§1) Therefore, we compared the functional outcomes of Dex treated SCI mice with SCI only mice using multiple behavior tests post-trauma. C57 BL/6 wild type mice (female) at age of 8 weeks were randomly assigned into three different groups, including sham, SCI, and SCI+Dex. Then the moderate T9 contusive SCI was introduced in two injury groups using LISA injury model. Mice in sham and SCI only group were put on the heating pad to maintain their normal body temperature, while mice in Dex treated group were exposed in ambient room temperature of 24.5° C. for hypothermia during whole surgery and recovery process. One hour after injury, one dose of Dex (100 μg/kg) was IP administrated to rapidly induce early moderate to modest therapeutic hypothermia (30-32° C.). All mice body temperature were measured by rectal probe every 30 minutes to monitor the hypothermia after surgery till the mice fully waked up and back to normothermia. After SCI injury, at different time, multiple behavioral tests, were applied to examine functional outcomes and the potential neuroprotective effects of Dex treatment (FIG. 3A). The Basso Mouse Scale (BMS) was a reliable measurement that developed to examine the locomotion in spinal cord injured mice. It has been widely used in mouse functional evaluation and serves as an indicator of recovery. This test examines different locomotor categories such as paralysis, weight support, stepping, trunk stability, and so on. The scores ranged from 9 to 0 that represent normal movement to complete paralysis, respectively. Three days prior surgery, the BMS scores of all mice in different groups were measured. Only mice with 9 score were kept. The mice with score lower than 9 were replaced to make sure mice in different groups had same baseline of locomotion. After surgery, the BMS score was repeatedly measured at 3 days, 1 week, 2 weeks, 3 weeks, 4 weeks, 5 weeks, and 6 weeks (FIG. 3B).
Contusive spinal cord injury: Adult female C57BL/6 mice (8 weeks old, 18-22 g) were purchased from The Jackson Laboratory (Bar Harbor, ME). Depending on different injury model, mice were either randomly divided into three groups: sham, SCI+heating pad, and SCI+Dex for LISA injury model, or were randomly divided into four groups: sham, SCI+heating pad, SCI+Dex, and SCI+Conventional hypothermia for Infinite Horizons (IH) model. […]

[4] = tested on: mice with moderate T9 contusive SCI
From the text: as §1
Contusive spinal cord injury: Adult female C57BL/6 mice (8 weeks old, 18-22 g) were purchased from The Jackson Laboratory (Bar Harbor, ME). Depending on different injury model, mice were either randomly divided into three groups: sham, SCI+heating pad, and SCI+Dex for LISA injury model, or were randomly divided into four groups: sham, SCI+heating pad, SCI+Dex, and SCI+Conventional hypothermia for Infinite Horizons (IH) model. […] All animal care, handling, and surgery were performed in accordance with the Guide for the Care and Use of Laboratory Animals (National Research Council) and the Guidelines of the Institutional Animal Care and Use Committee of Indiana University School of Medicine. Spinal cord contusion was made at the thoracic (T9) vertebral level. After avertin anesthesia, animals will be placed on a thermometer-controlled heating pad for the duration of recovery (except Dex and conventional hypothermia treated group). For LISA injury model, C57/6J mice were anesthetized. A midline skin incision was made to expose the thoracolumbar spine, followed by the removal of the T9 spinous process and lamina to expose the dura mater. The displacement was set to be 0.5 mm. The T9 contusion injury was performed using a LISA impactor, where the injury level was determined using a laser sensor. After injury confirmation, the surgical area is sutured, the animal is hydrated and monitored for post-operative care, including analgesia and bladder expression. For IH model, a 1-inch skin incision was placed on the dorsal midline, musculature was retracted, and then the spinal column was visualized and placed into a stabilizer with two clamps retracting the spinous processes of the vertebrae directly surrounding the injury site. A laminectomy was performed to expose the dura.

What does the source list for `Cc1cccc([C@H](C)c2cnc[nH]2)c1C` [Dex, dexmedetomidine hydrochloride]?
surviving NeuN-positive neurons compared to none-treatment group (NeuN-positive neurons): about 10 times; c-fos positive neurons in raphe nuclei vs. SCI group [1]: Significantly more c-fos positive neurons; duration of moderate hypothermia [2]: 16 h; urination volume (mouse with a SCI; 24 hours): 0.48 ± 0.22 mL; residual urine volume (mouse with a SCI): 0.4 ± 0.22 mL; time at which normal body temperature was regained ([3]; Dex 100 μg/kg 1 hour after T9 SCI): 24 hr post trauma; duration of hypothermia ([3]; Dex 100 μg/kg one hour after T9 SCI (LISA)): up to 16 hours; time to spontaneously rewarm to normal temperature ([3]; Dex 100 μg/kg one hour after T9 SCI, after the hypothermia period): 5 to 6 h; rewarming rate ([3]; Dex 100 μg/kg one hour after T9 SCI, spontaneous rewarming, hydrochloride): < 1.0 °C per hour; locomotion recovery (BMS) compared to none-treatment SCI group ([4]; FIG. 3B, female, n=10): better locomotion recovery; improvement of locomotor function in BMS test ([4]; compared with about 25% for hypothermia alone (meta-analysis)): 70%; BMS score compared to SCI only group ([4]; day 3 post-injury, Dex 100 μg/kg IP one hour after injury): did not show the significant difference; average BMS score ([4]; one week after surgery, Dex 100 μg/kg IP): ~5; increase of BMS score compared to SCI only group ([4]; week 6 (end of test)): over 65%; BMS score ([4]; week 6 (end of test), Dex 100 μg/kg IP): about 7.8
